In the METLIN SMRT retention time set (Domingo-Almenara et al. 2019):

Test: gradient 5% acetonitrile 3 min, to 50% in 2 min, to 85% in 15 min, held 3 min, 100 µL/min
Conditions: column: Zorbax Extend-C18 2.1 x 50 mm; eluents: water / acetonitrile, 0.1% formic acid
In short: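 Retention time was recorded from adduct peaks, which were picked computationally and each inspected manually. Pure standards ran in mixtures of ~100 molecules on HPLC coupled to a quadrupole time-of-flight mass spectrometer, in positive and negative ionization mode, through a Zorbax Extend-C18 column (2.1 × 50 mm, 1.8 μm) at 100 μL/min. Eluents were water and acetonitrile, each with 0.1% formic acid.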

RP-LC retention time | Structure (SMILES)
834 s | CCOC(=O)c1ccc(Nc2nnc(CSc3nc(C)cc(C)n3)s2)cc1
609 s | COCCC(=O)Nc1ccc2c(c1)CCC(=O)N2C
604 s | O=C(NCCN1CCOCC1)C1CC(=O)N(CCc2c[nH]c3ccc(Cl)cc23)C1 (configuration not stated)
638 s | Cn1cnc(S(=O)(=O)N2CCC(C(=O)N3CCCCCC3)CC2)c1
724 s | CCn1cnc(S(=O)(=O)N2CCC(C(=O)Nc3cccc(-c4ccno4)c3)CC2)c1
894 s | Cc1cc2c(c(=O)n(-c3ccc(F)cc3)c(=O)n2CC(=O)Nc2ccc(Cl)cc2F)n1C
657 s | O=C(Nc1ccc(F)cc1)c1nnc(CSCC(=O)N2CCN(c3ccccn3)CC2)s1
881 s | COc1ccccc1-c1csc(NC(=O)Cc2csc(C)n2)n1
874 s | COCCCn1c(=O)c2ccccc2n(Cc2nc(-c3ccccc3OC)no2)c1=O
793 s | Cc1cc(=O)n(CC(=O)Nc2ccc(Br)cc2)c(N2CCC(C)CC2)n1
1030 s | CCc1ccc(NC(=O)CSC2=C(C#N)C3(CCCCC3)C(C#N)C(=O)N2)cc1 (configuration not stated)
822 s | Cc1ccc(-c2nnc(Cc3nc(-c4ccccn4)no3)o2)cc1F
1060 s | COC(=O)c1ccccc1NC(=O)c1ccc(F)cc1
1190 s | CCc1nc2cc(-c3noc(CCc4ccccc4OC)n3)ccc2o1
574 s | COc1ccc(-c2c(C(=O)NCCN3CCN(C)CC3)nc3ccccn23)cc1
1180 s | COc1c(C(=O)Nc2ccc3c(c2)OCO3)sc2ccc(Cl)cc12
644 s | CNCc1ccc(-c2ccc(F)c(Cl)c2)o1
776 s | Cc1nn(-c2ccc(-c3ccccc3)nn2)c(C)c1S(=O)(=O)N1CCN(c2ccccn2)CC1
1120 s | CCN(Cc1ccccc1)C(=O)c1cn(-c2cc(N3CCC(C)CC3)ncn2)cn1
835 s | CC1=C(c2ccc(F)cc2)S(=O)(=O)N=C1N1CCCN(C(=O)c2ccc(F)cc2)CC1
653 s | Cn1c(N2CCCN(C(=O)c3ccc(Br)o3)CC2)cc(=O)n(C)c1=O
641 s | COCCNC(=O)Cn1c(C(F)(F)F)nc2cc3c(cc21)OCCO3
657 s | Cc1cc(=O)n(CC(=O)Nc2ccccc2C)c(N2CCOCC2)n1

RP-LC retention time | Structure (SMILES)
599 s | CC(C)N1CCC(c2nnc3n2CCN(S(=O)(=O)c2ccccc2Cl)C3)C1 (configuration not stated)
674 s | CCC1CCCCN1C(=O)c1cnc2nc(C)ccc2c1Nc1ccc(C)cc1 (configuration not stated)
708 s | Cc1cccc(-c2noc(-c3ccc(N4CCN(C)CC4)nc3)n2)c1
683 s | COc1ccccc1CNC(=O)C1CCCN(c2nnc3ccc(Cl)cn23)C1 (configuration not stated)
894 s | COC(=O)CN1CN(c2ccc(C)cc2)c2ncccc2S1(=O)=O
914 s | CC(=O)c1ccc(N2CCN(C(=O)c3nnn4c3COC(c3ccc(F)cc3)C4)CC2)cc1 (configuration not stated)
832 s | COc1ccc(OCc2noc(CNC(=O)c3cc(-c4ccco4)on3)n2)cc1
871 s | COc1ccc(Cc2nc3nccc(-c4ccc(F)cc4OC)n3n2)cc1
598 s | COc1nn(C)cc1C(=O)Nc1nnc(-c2sc(C)nc2C)o1
870 s | O=C(CN1C(=O)CSc2ccc(C(=O)N3CCCCC3)cc21)NCCC1=CCCCC1
603 s | Cn1c(C(=O)NCCN2CCOCC2)cc2c(=O)oc3ccccc3c21
691 s | O=C(NCCOc1ccc(F)cc1)C1CN(C(=O)c2cccs2)C1
692 s | O=C(c1cn[nH]c1)N1CCCC1Cc1noc(C2CCCC2)n1 (configuration not stated)
777 s | CC(C)C(=O)Nc1ccc(-n2cnc(C(=O)NC(C)c3ccc(F)cc3)c2)nc1 (configuration not stated)
653 s | CN1C(=O)C2(c3ccccc31)C(C(=O)Nc1c(F)c(F)c(F)c(F)c1F)CC1CCCN12 (configuration not stated)
607 s | CC(C)n1cnc2cc(CNC(=O)Cc3cccc(F)c3)ccc21
591 s | O=C(NCCN1CCCC1)C1CCCN(c2ncnc3c2nc2n3CCCCC2)C1 (configuration not stated)
853 s | Cc1ccc(CNC(=O)CC2CCN(C(=O)c3[nH]c(C)c(C(=O)OC(C)C)c3C)CC2)cc1
1020 s | COc1cc(OC)cc(-c2nc(NC(=O)C3CCCN(c4cnc5ccccc5n4)C3)n[nH]2)c1 (configuration not stated)
662 s | CCCn1c(CCC(=O)Nc2ccc3c(c2)OCCO3)nc2cccnc21
860 s | CC(=O)N(Cc1nn(C)c2c1CN(S(=O)(=O)c1ccc(F)c(Cl)c1)CC2)c1ccccc1
560 s | CN1CCCC1c1nc(C2CN(C(=O)c3n[nH]c(=O)c4ccccc34)C2)no1 (configuration not stated)
907 s | CC(C)c1ccc(NC(=O)C2CCN(C(=O)C(C)(C)C)CC2)cc1

RP-LC retention time | Structure (SMILES)
861 s | CCN1C(=O)C(C)(C(=O)Nc2ccc(C(=O)OC)cc2)Oc2cccnc21 (configuration not stated)
678 s | O=C(NCCN1CCCCC1)c1ccc(I)cc1
738 s | Cc1cc2[nH]c(C(=O)Nc3ccc(C)c(F)c3)c(CN3CCOCC3)c2s1
1040 s | COc1ccc(-c2nnc(-c3cc(S(=O)(=O)N4CCCC4)ccc3Cl)o2)cc1
1030 s | Cc1ccc2c(c1)OCC(=O)N2Cc1nc(-c2ccc3c(c2)OCO3)no1
930 s | Cc1ccc2c(c1)N(S(C)(=O)=O)CCC(C(=O)Nc1c(C)cccc1C)O2 (configuration not stated)
611 s | COc1ccc(NC(=O)N2CCC(N3C[C@H]4C[C@H](C3)[C@H]3CCCC(=O)N3C4)CC2)cc1OC
553 s | O=c1c(NCCc2ccncc2)nc2ccncc2n1Cc1ccccc1
790 s | COc1ccc(-c2nnc(COc3ccc(NC(=O)c4ccnn4C)cc3)o2)cc1
869 s | Cn1c(=O)c2cc(C(=O)NCc3cc(F)ccc3F)nn2c2ccccc21
794 s | O=C(Cc1ccccc1F)N1CCN(c2cc(-c3cccs3)[nH]n2)CC1
869 s | O=C(N1CCC(n2nc(-c3ccsc3)ccc2=O)CC1)C1(c2ccccc2)CC1
665 s | N#Cc1ccc(C(=O)Nc2cccc(-c3nnc4n3CCCC4)c2)cc1
959 s | COc1ccc(N2CCN(c3cc(SCC(=O)Nc4ccc(F)cc4C)ncn3)CC2)cc1
828 s | O=c1n(Cc2ccc3c(c2)OCO3)nc2c(S(=O)(=O)N3CCCCC3)cccn12
714 s | Cc1c(OCC(N)=O)ccc2c1O/C(=C\c1ccc3c(c1)OCO3)C2=O
849 s | Cc1cc2c(cc1S(=O)(=O)N1CCCC1C(=O)Nc1ccc(F)cc1Cl)OC(C)C(=O)N2 (configuration not stated)
605 s | Cc1cnc(C(=O)N2CCC3(CCC3O)CC2)cn1 (configuration not stated)
1220 s | Cc1ccc(-c2noc(C3CCCN3S(=O)(=O)c3ccc(Br)s3)n2)cc1 (configuration not stated)
612 s | O=C(NCc1cccnc1)c1c2c(nc3ccccc13)C(=O)N(C1CCCCC1)C2
587 s | COc1ccc(OC)c(CNC(=O)c2cn3c(n2)CCCC3)c1
